ChEMBL document CHEMBL3885861, “Open TG-GATES”

Species on record: Rattus norvegicus
Assay: Open TG-GATES - Regimen: Single
Type: toxicity, organism-based, Sprague-Dawley
Design: regimen Single, gender Male, age 6 weeks
Conditions: in vivo, po, route gavage; for APTT / Bas / Eos / Fbg / Hb / Lym / MCH / MCHC / MCV / Mono / RBC / Ret / WBC: tissue Blood; for KIDNEY_L / KIDNEY_R / KIDNEY_TOTAL: tissue Kidney; for LIVER: tissue Liver; for ALP / ALT / AST / CRE / Ca / Cl / DBIL / GLC / IP / K / LDH / Na / PL / RALB / TBIL / TC / TG / TP / gamma-GTP: tissue Plasma
[1] = 0 mg/kg, 3 h, dose level Control
[2] = 0 mg/kg, 6 h, dose level Control
[3] = 0 mg/kg, 9 h, dose level Control
[4] = 0 mg/kg, 24 h, dose level Control

O=C1CN(/N=C/c2ccc(-c3ccc([N+](=O)[O-])cc3)o2)C(O)=N1 [DANTROLENE]
TERMINAL_BW [1]: 200.3 g | APTT [1]: 16.2 s | Bas [1]: 0% | Eos [1]: 1% | Fbg [1]: 209.6 mg/dL | Hb [1]: 13.4 g/dL | Lym [1]: 82.4% | MCH [1]: 22.9 pg | MCHC [1]: 34.6% | MCV [1]: 66.2 fL | Mono [1]: 5.6% | RBC [1]: 586.4 x10_4/ul | Ret [1]: 10.7% | WBC [1]: 134.1 x10_2/uL | KIDNEY_L [1]: 1 g | KIDNEY_R [1]: 1 g | KIDNEY_TOTAL [1]: 1.9 g | LIVER [1]: 9.3 g | ALP [1]: 876.8 IU/L | ALT [1]: 36.2 IU/L | AST [1]: 69.2 IU/L | CRE [1]: 0.5 mg/dL | Ca [1]: 10.6 mg/dL | Cl [1]: 103.8 meq/L | DBIL [1]: 0.058 mg/dL | GLC [1]: 194.2 mg/dL | IP [1]: 8.7 mg/dL | K [1]: 4.7 meq/L | LDH [1]: 92.8 IU/L | Na [1]: 139.6 meq/L | PL [1]: 134.8 mg/dL | RALB [1]: 3.6 g/dL | TBIL [1]: 0.3 mg/dL | TC [1]: 75 mg/dL | TG [1]: 47 mg/dL | TP [1]: 5.3 g/dL | gamma-GTP [1]: 2.2 IU/L | TERMINAL_BW [2]: 201.9 g | APTT [2]: 16.6 s | Bas [2]: 0% | Eos [2]: 1% | Fbg [2]: 205 mg/dL | Hb [2]: 13.3 g/dL | Lym [2]: 77.4% | MCH [2]: 22.6 pg | MCHC [2]: 34.6% | MCV [2]: 65.4 fL | Mono [2]: 9.2% | RBC [2]: 588 x10_4/ul | Ret [2]: 13.2% | WBC [2]: 107.2 x10_2/uL | KIDNEY_L [2]: 1 g | KIDNEY_R [2]: 0.9 g | KIDNEY_TOTAL [2]: 1.9 g | LIVER [2]: 9.3 g | ALP [2]: 689.6 IU/L | ALT [2]: 32.6 IU/L | AST [2]: 59.6 IU/L | CRE [2]: 0.5 mg/dL | Ca [2]: 10.5 mg/dL | Cl [2]: 104.4 meq/L | DBIL [2]: 0.064 mg/dL | GLC [2]: 196.4 mg/dL | IP [2]: 9.5 mg/dL | K [2]: 4.7 meq/L | LDH [2]: 82.2 IU/L | Na [2]: 140 meq/L | PL [2]: 135.2 mg/dL | RALB [2]: 3.5 g/dL | TBIL [2]: 0.3 mg/dL | TC [2]: 79.8 mg/dL | TG [2]: 58.2 mg/dL | TP [2]: 5.3 g/dL | gamma-GTP [2]: 1.2 IU/L | TERMINAL_BW [3]: 195.9 g | APTT [3]: 17.1 s | Bas [3]: 0% | Eos [3]: 1% | Fbg [3]: 200.6 mg/dL | Hb [3]: 13 g/dL | Lym [3]: 76.4% | MCH [3]: 21.5 pg | MCHC [3]: 33.1% | MCV [3]: 64.9 fL | Mono [3]: 9.8% | RBC [3]: 605.8 x10_4/ul | Ret [3]: 10.2% | WBC [3]: 98.6 x10_2/uL | KIDNEY_L [3]: 0.9 g | KIDNEY_R [3]: 0.9 g | KIDNEY_TOTAL [3]: 1.8 g | LIVER [3]: 8 g | ALP [3]: 881.6 IU/L | ALT [3]: 33.4 IU/L | AST [3]: 73.2 IU/L | CRE [3]: 0.5 mg/dL | Ca [3]: 10.1 mg/dL | Cl [3]: 107.6 meq/L | DBIL [3]: 0.084 mg/dL | GLC [3]: 200.2 mg/dL | IP [3]: 10.4 mg/dL | K [3]: 4.9 meq/L | LDH [3]: 80.2 IU/L | Na [3]: 140 meq/L | PL [3]: 127.2 mg/dL | RALB [3]: 3.6 g/dL | TBIL [3]: 0.4 mg/dL | TC [3]: 73.2 mg/dL | TG [3]: 21.2 mg/dL | TP [3]: 5.1 g/dL | gamma-GTP [3]: 1.6 IU/L | TERMINAL_BW [4]: 212.6 g | APTT [4]: 17.5 s | Bas [4]: 0% | Eos [4]: 1.2% | Fbg [4]: 207.4 mg/dL | Hb [4]: 13.2 g/dL | Lym [4]: 76.6% | MCH [4]: 21.9 pg | MCHC [4]: 33.7% | MCV [4]: 64.9 fL | Mono [4]: 9.4% | RBC [4]: 602.2 x10_4/ul | Ret [4]: 12.5% | WBC [4]: 91.9 x10_2/uL | KIDNEY_L [4]: 1 g | KIDNEY_R [4]: 1 g | KIDNEY_TOTAL [4]: 2 g | LIVER [4]: 10.2 g | ALP [4]: 993.6 IU/L | ALT [4]: 33.8 IU/L | AST [4]: 63.8 IU/L | CRE [4]: 0.5 mg/dL | Ca [4]: 10.9 mg/dL | Cl [4]: 105.6 meq/L | DBIL [4]: 0.012 mg/dL | GLC [4]: 198.4 mg/dL | IP [4]: 8 mg/dL | K [4]: 4.7 meq/L | LDH [4]: 80.6 IU/L | Na [4]: 141.6 meq/L | PL [4]: 144.2 mg/dL | RALB [4]: 3.7 g/dL | TBIL [4]: 0.4 mg/dL | TC [4]: 73.8 mg/dL | TG [4]: 91.6 mg/dL | TP [4]: 5.5 g/dL | gamma-GTP [4]: 1.8 IU/L | TERMINAL_BW (25 mg/kg, 3 h, dose level Low): 196.9 g | APTT (25 mg/kg, 3 h, dose level Low): 16.9 s
